Measurements from US20260365655A1, “NEW USE OF JANUS KINASE (JAK)-DEGRADING AGENT BASED ON PROTEOLYSIS TARGETING CHIMERA (PROTAC)” (SHANGHAI SKIN DISEASE HOSPITAL, priority 2022, published 2026).

Test: HaCaT cell viability by CCK-8 assay
Assay type: cell-based
Details: human, hacat cells
Description: (1) Reagents: compound 1: a compound shown by Compound 1 in Formula (I); compound 2: a compound shown by Compound 2 in Formula (I); Dulbecco's Modified Eagle Medium (DMEM) high-glucose medium: Wuhan Pricella Biotechnology Co., Ltd.; South American fetal bovine serum (FBS) and trypsin: Gibco, USA; penicillin-streptomycin: Hyclone, USA; and CCK-8 kit: Beyotime.
(2) Instruments: CO2 incubator: HERA cell 240; and microplate reader: Thermo Fisher Scientific, USA.
The cultured HaCaT cells were counted under a microscope to be about 2×10^6 cells/mL, then inoculated in a 96-well plate at about 6×10^3 cells/well, and incubated overnight in a 37 °C and 5% CO2 incubator. After cells were adherent, a medium was removed, and 200 μL of each of complete media including compounds 1 and 2 at different concentrations (0.05 μg/mL, 0.1 μg/mL, 0.2 μg/mL, 0.5 μg/mL, 1 μg/mL, 2 μg/mL, 5 μg/mL, 10 μg/mL, and 20 μg/mL) was added to a corresponding well. The 0 μg/mL group was set as a blank control group. Three replicate wells were set for each treatment of the compounds 1 and 2. The plate was incubated in a CO2 incubator for 24 h. 20 μL of CCK-8 reagent was added to each well, and the plate was incubated in a CO2 incubator for 1 h and then placed in the microplate reader to read the absorbance at 450 nm. The test was repeated 3 times, and a mean value was taken. The measured absorbance was substituted into a cell viability calculation formula to calculate the cell viability.
The data of the present disclosure was processed with the Excel and Graphpad software. The experimental data was tested by one-way ANOVA. The post-hoc multiple comparison was conducted with the LSD. P<0.05 indicated a significant difference.

In the case of N#CC[C@H](C1CCCC1)n1cc(-c2nc(Nc3ccc(C(=O)NCCCCNc4cccc5c4C(=O)N(C4CCC(=O)NC4=O)C5=O)cc3)nc3[nH]ccc23)cn1 (stereo partly drawn) [Compound 1], the viability at 24 h (0.05 μg/mL) is reported as 80.5%, the viability at 24 h (0.10 μg/mL) is reported as 85.7% and the viability at 24 h (0.20 μg/mL) is reported as 90.7%. The viability at 24 h (0.50 μg/mL) was 98.3%, the viability at 24 h (1.00 μg/mL) was 98.3% and the viability at 24 h (2.00 μg/mL) was 93.8%. The viability at 24 h (5.00 μg/mL) was 108%, the viability at 24 h (10.00 μg/mL) was 110% and the viability at 24 h (20.00 μg/mL) was 80.3%.
For CCS(=O)(=O)N1CC(CC#N)(n2cc(-c3nc(Nc4ccc(C(=O)NCCCCNc5cccc6c5C(=O)N(C5CCC(=O)NC5=O)C6=O)cc4)nc4[nH]ccc34)cn2)C1 (stereo not drawn) [Compound 2], the viability at 24 h (0.05 μg/mL) was 95.5%, the viability at 24 h (0.10 μg/mL) was 95.6% and the viability at 24 h (0.20 μg/mL) was 106%. For the same compound, the viability at 24 h (0.50 μg/mL) was 113%, the viability at 24 h (1.00 μg/mL) was 101% and the viability at 24 h (2.00 μg/mL) was 107%. The viability at 24 h (5.00 μg/mL) was 124%, the viability at 24 h (10.00 μg/mL) was 120% and the viability at 24 h (20.00 μg/mL) was 93.3%.
